# Experimental data: patent US20110257144A1 (APEX LABORATORIES PRIVATE LIMITED, priority 2008, published 2011)
# Key:
# Staphylococcus aureus = test: In vitro antimicrobial zone of inhibition study; format: cell-based
# Experimental: API-stability experiments were carried out (see tables 4-14) using the product of the present invention and products currently commercially available. Tests were carried out to observe (or measure as appropriate) the physical appearance of the product, the pH value and assay of the API over a period of time. Tests were also carried out to assess the stability by subjecting the product to stress studies such as autoclave test and oxydative degradation test. Further, in vitro antimicrobial zone of inhibition studies were also carried out over a period of time. […] The antimicrobial/antibacterial activity of the product is confirmed by the in vitro Antimicrobial Zone of Inhibition studies for the product against Staphylococcus aureus. The details of the studies are detailed below in Table 15.
# [1] = Stability of raw API after 3 months in open and closed Petri dish, stability-indicating HPLC method and titration method; format: physicochemical; conditions: for Percentage Drop (%) HPLC: after 3 months; for *Initial (%): assay at the time of receipt of the API from the supplier
# Experimental: Degradation due to oxidation is a major cause of instability of currently available Fusidic acid creams. […] It can be observed from Tables 1 and 2 that: • In the case of Fusidic Acid, there is about 7.7% loss in 3 Months at room temperature (open condition) and about 11% loss in 3 Months at 45° C. […] (open condition).
Percentage Drop (%) HPLC ([1]; 45° C. (Open) Petri dish),Percentage Drop (%) HPLC ([1]; RT (Open) Petri dish),"stability as an API (comparison) ([1]; Sodium Fusidate versus Fusidic acid, Tables 1 and 2)",*Initial (%) ([1]; listed as Sodium Fusidate BP),*Initial (%) ([1]; listed as FUSIDIC ACID BP),Compound,Inference (Staphylococcus aureus; dose 10 Units),Zone Diameter Range (mm) (Staphylococcus aureus; dose 10 Units),Inference (Staphylococcus aureus; dose 10 mcg),Zone Diameter Range (mm) (Staphylococcus aureus; dose 10 mcg),Inference (Staphylococcus aureus; dose 20 mcg),Zone Diameter Range (mm) (Staphylococcus aureus; dose 20 mcg),Inference (Staphylococcus aureus; dose 50 mcg),Zone Diameter Range (mm) (Staphylococcus aureus; dose 50 mcg)
,,,,,CC1(C)S[C@@H]2[C@H](NC(=O)Cc3ccccc3)C(=O)N2[C@H]1C(=O)O [Penicillin G],Resistant,21-27 mm,,,,,,
about 6%,about 2.5%,more stable than Fusidic acid,98.7%,,CC(=O)O[C@H]1C[C@@]2(C)[C@@H](C[C@@H](O)[C@H]3[C@@]4(C)CC[C@@H](O)[C@@H](C)[C@@H]4CC[C@@]32C)/C1=C(\CCC=C(C)C)C(=O)O [Sodium Fusidate],,,,,,,,
about 11%,about 7.7%,,,100.6%,CC(=O)O[C@H]1C[C@@]2(C)[C@@H](C[C@@H](O)[C@H]3[C@@]4(C)CC[C@@H](O)[C@@H](C)[C@@H]4CC[C@@]32C)/C1=C(\CCC=C(C)C)C(=O)O [Fusidic acid],,,Sensitive,21-33 mm,Sensitive,20-30 mm,Sensitive,25-32 mm
